Measurements from US20090068290A1, “BIFEPRUNOX DOSES FOR TREATING SCHIZOPHRENIA” (priority 2006, published 2009).

Tests used:
Assay type in all cases: in vivo, human
[1] = system: adult subjects with schizophrenia; experiment: CGI responder rate, Clinical Study Two; conditions: LOCF
Experimental: Notable differences were also observed between the 30 mg bifeprunox group and placebo for the change from baseline to endpoint in PANSS general psychopathology subscale score, BPRS total score, BPRS psychosis cluster score, PANSS responder rate, and CGI-I responder rate. In the study, a PANSS responder refers to a subject whose PANSS total score decreased by 20% or more from baseline to endpoint. A CGI-I responder refers to a subject who was categorized as “very much improved” or “much improved” in the CGI Global Improvement scale at endpoint.
Pharmacokinetic (PK) data of bifeprunox in schizophrenic subjects were also assessed and are presented in a separate report (combined with data from study S1543003).
(§1) Subjects who completed this study had the option to continue in the long-term. […] Risperidone-treated subjects were titrated from 2 mg to 6 mg daily over a three-day period and were subsequently maintained at 6 mg/day for the remainder of the treatment period. […] Blood samples were also obtained at Screening/Baseline, Week 3, and Week 6 for clinical laboratory assessments.
CLINICAL STUDY TWO: A CGI responder is defined as a subject who is categorized as “very much improved” or “much improved” on the CGI Improvement scale. […] A notable difference between the 30 mg bifeprunox group and placebo was seen (p=0.039).

[2] = system: adult subjects with schizophrenia; experiment: Adverse events (TEAE, SAE, special interest, EPS-related TEAE), Clinical Study Two; conditions: Risperidone 6 mg
Experimental: as §1

[3] = system: adult subjects with schizophrenia; experiment: BPRS psychosis cluster score, Clinical Study One; conditions: Risperidone 6 mg, ITT population
Experimental: (§2) There were five treatment groups in this study. […] Study medication was administered once daily. After Baseline measurements were performed, the titration phase was begun. Bifeprunox treated subjects were titrated up to 5 mg, 10 mg or 20 mg according to a standardized titration schedule (Day 1: 0.125 mg, Day 2: 0.25 mg, Day 3: 0.5 mg, Day 4: 1.0 mg, Day 5: 2.0 mg, Day 6: 5.0 mg, Day 7: 10.0 mg, Day 8: 20 mg). When the assigned dose was reached, subjects were maintained at that dose for the remainder of the six-week treatment period.

[4] = system: adult subjects with schizophrenia; experiment: PANSS general psychopathology subscale score, Clinical Study One; conditions: Risperidone 6 mg, ITT population
Experimental: as §2
The change in the Positive and Negative Symptom Scale (PANSS) total score, from baseline to endpoint, was the primary outcome measure. Secondary efficacy measures included: PANSS positive, PANSS negative, PANSS general psychopathology (GPP) score, PANSS-derived Brief Psychiatric Rating Scale (BPRS) score, Clinical Global Impressions-Severity of Illness (CGI-S), CGI-Improvement (CGI-I) scores, and responder rates. Safety and tolerability evaluations included extrapyramidal symptoms (EPS), weight gain, lipid profile, and serum prolactin.

[5] = system: adult subjects with schizophrenia; experiment: PANSS positive symptom subscale score, Clinical Study Two; conditions: Risperidone 6 mg, LOCF, ITT
Experimental: Rating scale assessments were performed weekly, except for week 5, to measure the change from baseline to endpoint of the PANSS total score. Other assessments included: PANSS positive symptom subscale score, PANSS negative symptom subscale score, PANSS general pschopathology subscale score, BPRS total score, BPRS psychosis score, the CGI-S score, the CGI-I score, responder rates based on the PANSS total score, and the Calgary Depression Scale for Schizophrenia (CDSS). […]
as §1

In the case of `Cc1nc2n(c(=O)c1CCN1CCC(c3noc4cc(F)ccc34)CC1)CCCC2` [Risperidone, risperidone, reference compound], the “CGI Responder at Endpoint No, %” value ([1]; 6 mg) was 48%, the “CGI Responder at Endpoint Yes, %” value ([1]; 6 mg) was 52% and the “CGI-I responder rate (subjects much or very much improved) at Endpoint” value ([1]; risperidone 6 mg) was 52%. The “AKATHISIA, %” value [2] was “(10%)”, the “BRADYKINESIA, %” value [2] was “(1%)” and the “DISTURBANCE IN ATTENTION, %” value [2] was “(1%)”. The “DIZZINESS, %” value [2] was “(6%)”, the “DYSARTHRIA, %” value [2] was “(2%)” and the “DYSKINESIA, %” value [2] was “(<1%)”. The “Dystonia, %” value [2] was “(7%)”, the “EXTRAPYRAMIDAL DISORDER, %” value [2] was “(14%)” and the “HEADACHE NOS, %” value [2] was “(15%)”. The “Hypoaesthesia, %” value [2] was 1 (<1%), the “Memory Impairment, %” value [2] was 1 (<1%) and the “NERVOUS SYSTEM DISORDERS, %” value [2] was “(53%)”. The “Parkinsonism, %” value [2] was 1%, the “SEDATION, %” value [2] was 7% and the “SINUS HEADACHE, %” value [2] was 1 (<1%). For the same molecule, the “SOMNOLENCE, %” value [2] was 6%, the “TARDIVE DYSKINESIA, %” value [2] was 2% and the “TREMOR, %” value [2] was 5%. For the same molecule, the “incidence of severe TEAE of schizophrenia” value [2] was 2%, the “subjects with at least one TEAE” value [2] was 78% and the “Change from Baseline in BPRS Psychosis Cluster Score, Mean (S.D.)” value ([3]; Endpoint LOCF) was −4.1 (3.5). The “Change from Baseline in BPRS Psychosis Cluster Score, Median” value ([3]; Endpoint LOCF) was −4, the “Change from Baseline in BPRS Psychosis Cluster Score, Mean (S.D.)” value ([3]; Week 1, LOCF) was −2.2 (2.7) and the “Change from Baseline in BPRS Psychosis Cluster Score, Median” value ([3]; Week 1, LOCF) was −2. The “Change from Baseline in BPRS Psychosis Cluster Score, Mean S.D.” value ([3]; Week 2, LOCF) was −3.6 (3.2), the “Change from Baseline in BPRS Psychosis Cluster Score, Median” value ([3]; Week 2, LOCF) was −3 and the “Change from Baseline in BPRS Psychosis Cluster Score, Mean (S.D.)” value ([3]; Week 3, LOCF) was −4.1 (3.4). For the same molecule, the “Change from Baseline in BPRS Psychosis Cluster Score, Median” value ([3]; Week 3, LOCF) was −4, the “Change from Baseline in BPRS Psychosis Cluster Score, Mean (S.D.)” value ([3]; Week 4, LOCF) was −3.9 (3.3) and the “Change from Baseline in BPRS Psychosis Cluster Score, Median” value ([3]; Week 4, LOCF) was −4. For the same molecule, the “Change from Baseline in PANSS General Psychopathology Subscale Score, Mean (S.D.)” value ([4]; Endpoint LOCF) was −6.8 (7.8), the “Change from Baseline in PANSS General Psychopathology Subscale Score, Median” value ([4]; Endpoint LOCF) was −5 and the “Change from Baseline in PANSS General Psychopathology Subscale Score, Mean (S.D.)” value ([4]; Week 1, LOCF) was −3.4 (5.8). For the same molecule, the “Change from Baseline in PANSS General Psychopathology Subscale Score, Median” value ([4]; Week 1, LOCF) was −3, the “Change from Baseline in PANSS General Psychopathology Subscale Score, Mean (S.D.)” value ([4]; Week 2, LOCF) was −5.8 (7.1) and the “Change from Baseline in PANSS General Psychopathology Subscale Score, Median” value ([4]; Week 2, LOCF) was −6. The “Change from Baseline in PANSS General Psychopathology Subscale Score, Mean (S.D.)” value ([4]; Week 3, LOCF) was −6.9 (7.3), the “Change from Baseline in PANSS General Psychopathology Subscale Score, Median” value ([4]; Week 3, LOCF) was −6 and the “Change from Baseline in PANSS General Psychopathology Subscale Score, Mean (S.D.)” value ([4]; Week 4, LOCF) was −6.3 (7.7). The “Change from Baseline in PANSS General Psychopathology Subscale Score, Median” value ([4]; Week 4, LOCF) was −5, the “Change from Baseline in PANSS Positive Symptom Subscale Score, Mean (SD)” value (“Change from Baseline … (SD)” for short) ([5]; Week 1) was −3.3 (3.6) and the “Change from Baseline in PANSS Positive Symptom Subscale Score, Median” value ([5]; Week 1) was −3. For the same molecule, the “Change from Baseline … (SD)” value ([5]; Week 2) was −5.3 (4.7), the “Change from Baseline in PANSS Positive Symptom Subscale Score, Median” value ([5]; Week 2) was −5 and the “Change from Baseline … (SD)” value ([5]; Week 3) was −6.3 (5.3). The “Change from Baseline in PANSS Positive Symptom Subscale Score, Median” value ([5]; Week 3) was −6, the “Change from Baseline … (SD)” value ([5]; Week 4) was −7.0 (5.6) and the “Change from Baseline in PANSS Positive Symptom Subscale Score, Median” value ([5]; Week 4) was −7. For the same molecule, the “Change from Baseline … (SD)” value ([5]; Week 6/Endpoint) was −7.2 (6.6) and the “Change from Baseline in PANSS Positive Symptom Subscale Score, Median” value ([5]; Week 6/Endpoint) was −7.
